The structures appear in SMILES notation.

The assay has as its system cultured human mast cells (CHMC). The experiment in a line: CHMC low cell density IgE activation: tryptase assay. It counts as cell-based. The settings on record: anti-IgE. As for the experimental part: Pellet CHMC cells (980 rpm, 10 min) and resuspend in pre-warmed MT. Add 65 ul of cells to each 96-well plate. Depending on the degranulation activity for each particular CHMC donor, load 1000-1500 cells/well. Mix four times followed by a 1 hr incubation at 37° C. […] Stimulate cells by adding 25 ul of 6× anti-IgE solution to the appropriate plates. Add 25 ul MT to un-stimulated control wells. Mix twice following addition of the anti-IgE. Incubate at 37° C. for 30 minutes. […] Spin plates at 1000 rpm for 10 min to pellet cells. Transfer 25 ul of supernatant to a 96-well black bottom plate and add 100 ul of freshly diluted tryptase substrate solution to each well. Incubate plates at room temperature for 30 min.
For `CC1(C)CN(c2ccccn2)c2cc(Nc3nc(Nc4cccc(O)c4)ncc3F)ccc2O1` [R940348, N4-[3-Dihydro-2,2-dimethyl-4-(2-pyridyl)-benzo[1,4]oxazin-6-yl]-5-fluoro-N2-(3-hydroxyphenyl)-2,4-pyrimidinediamine], the IC50 (commonly the point on the concentration scale where inhibition reaches its midpoint) was 2.19 µM.
Under `CC(=O)Nc1cccc(N(C(C)=O)c2ncc(F)c(N(C(C)=O)c3cccc(N(C(C)=O)C(C)=O)c3)n2)c1` [R950245, N4-(3-N,N-Diacetylaminophenyl)-N2-(3-N-acetylaminopheny)-5-fluoro-N2,N4-pyrimidinediacetylamine] stands more than 10 µM; under `Fc1cnc(Cl)nc1Nc1ccc2ncccc2c1` [Compound R920409], more than 10 µM.
Under `CNC(=O)COc1cccc(Nc2ncc(F)c(Nc3ccc4c(c3)C(=NO)CCO4)n2)c1` [R950348, N4-(2,3-Dihydro-4-oxime-benzypyran-6-yl)-5-fluoro-N2-[3-(N-methylamino)carbonylmethyleneoxyphenyl]-2,4-pyrimidinediamine] stands 0.066 µM; under `CCOC(=O)CCn1ncc2cc(Nc3ncc(F)c(Nc4ccc5c(c4)OCCO5)n3)ccc21` [R935301, N2-[1-(2-Ethoxycarbonylethyl)indazoline-5-yl]-N4-(3,4-ethylenedioxyphenyl)-5-fluoro-2,4-pyrimidinediamine], 4.05 µM; under `CC(C)(CO)c1ccc(Nc2ncc(F)c(Nc3cccc(O)c3)n2)cc1` [R935153, 5-Fluoro-N2-[4-(2-hydroxy-1,1-dimethylethyl)phenyl]-N4-(3-hydroxyphenyl)-2,4-pyrimidinediamine], 0.238 µM.
On to `Fc1cnc(Cl)nc1Nn1cccc1` [Compound R935275], for which the IC50 was more than 10 µM.
Under `COc1cc(C(=O)NS(=O)(=O)c2ccccc2C)ccc1Cn1ncc2ccc(Nc3ncc(F)c(Nc4ccc(OC(C)C)cc4)n3)cc21` [R935322, 5-Fluoro-N4-(4-isopropoxyphenyl)-N2-[1-[2-methoxy-4-(o-toluylsulfonamidocarboxy)benzyl]indazoline-6-yl]-2,4-pyrimidinediamine] stands 3.42 µM.
Regarding `CN(C)C(=O)COc1cccc(Nc2ncc(F)c(Nc3ccc4c(c3)NCCO4)n2)c1` [R909290, N2-[3-(N,N-Dimethylaminocarbonylmethyleneoxy)phenyl]-N4-(1,4-benzoxazin-6-yl)-5-fluoro-2,4-pyrimidinediamine], the IC50 was 0.226 µM.
Under `CC(C)Oc1ccc(Nc2nc(Nc3ccc4c(cnn4CCCO)c3)ncc2F)cc1` [R935307, 5-Fluoro-N2-[1-(3-hydroxypropyl)indazoline-5-yl]-N4-(4-isopropoxyphenyl)-2,4-pyrimidinediamine] stands 0.139 µM.
For `COC(=O)c1ccc(Cn2cc3ccc(Nc4ncc(F)c(Nc5cccc(O)c5)n4)cc3n2)c(OC)c1` [R935337, 5-Fluoro-N4-(3-hydroxyphenyl)-N2-[2-(2-methoxy-4-carbomethoxybenzyl)indazoline-6-yl]-2,4-pyrimidinediamine], the IC50 is more than 10 µM.
The value for `Cc1cc(Nc2ncc(F)c(Nc3ccc(O)c(C)c3)n2)ccc1O` [R926469, N2,N4′-Bis(4-hydroxy-3-methylphenyl)-5-fluoro-2,4-pyrimidinediamine] was more than 10 µM; that for `Cc1cccc(Nc2nc(Cl)ncc2F)n1` [Compound R926888] was more than 10 µM; that for `CC(=O)Nc1cccc(N(C(C)=O)c2ncc(F)c(N(C(C)=O)c3cccc(NC(C)=O)c3)n2)c1` [R950244, N2,N4-Bis(3-N-acetylaminophenyl)-5-fluoro-N2,N4-pyrimidinediacetylamine] was more than 10 µM.
The value for `CC1(C)Oc2ccc(Nc3nc(Nc4cccc(O)c4)ncc3F)cc2NC1=O` [R940346, N4-[(2,2-Dimethyl-4H-benzo[1,4]oxazin-3-one)-6-yl]-5-fluoro-N2-(3-hydroxyphenyl)-2,4-pyrimidinediamine] was 0.142 µM.
In the case of `CC1(C)CN(c2cccc[n+]2[O-])c2cc(Nc3nc(Cl)ncc3F)ccc2O1` [Compound R940328], the IC50 was more than 10 µM.
Under `COC(=O)COc1cccc(Nc2ncc(F)c(Nc3ccc4[nH]ncc4c3)n2)c1` [R935269, 5-Fluoro-N4-(indazoline-5-yl)-N2-[3-(methoxycarbonylmethyleneoxy)phenyl]-2,4-pyrimidinediamine] stands 1.72 µM; under `CNC(=O)COc1cccc(Nc2ncc(F)c(Nc3cnc4c(c3)OC(C)(C)C(=O)N4)n2)c1` [R940345, N4-[(2,2-Dimethyl-4H-5-pyrido[1,4]oxazin-3-one)-7-yl]-5-fluoro-N2-[3-(methylaminocarbonylmethyleneoxy)phenyl]-2,4-pyrimidinediamine], 1.71 µM.
Under `CCOC(=O)C(C)(C)Oc1cccc(Nc2ncc(F)c(Nc3cccc(O)c3)n2)c1` [R926906, N2-[3-(Ethoxycarbonyl-1,1-dimethylmethyleneoxy)phenyl]-5-fluoro-N4-(3-hydroxyphenyl)-2,4-pyrimidinediamine] stands 0.794 µM; under `Fc1cnc(Cl)nc1Nc1ccc(Cl)nc1` [Compound R920400], more than 10 µM.
Under `Fc1cnc(Cl)nc1Nc1ccc(Cl)c(Cl)c1` [Compound R926884] stands more than 10 µM.
Take `CNC(=O)COc1cccc(Nc2ncc(F)c(Nc3cccc(-c4nnc(-c5ccccc5)o4)c3)n2)c1` [R926870, 5-Fluoro-N2-[3-(N-methylamino)carbonylmethyleneoxyphenyl]-N4-[3-(2-phenyl-1,3,4-oxadiazol-5-yl)phenyl]-2,4-pyrimidinediamine]: the midpoint of inhibition, the IC50, lay at 3.29 µM.
Under `CNC(=O)COc1cccc(Nc2ncc(F)c(Nc3ccc4cc(C(=O)OC)[nH]c4c3)n2)c1` [R926904, 5-Fluoro-N2-[3-[(N-methylamino)carbonylmethyleneoxy]phenyl]-N4-[2-(methoxycarbonyl)-(1H)-indol-6-yl]-2,4-pyrimidinediamine] stands 0.538 µM.
The value for `Fc1cnc(Cl)nc1Nc1cccc(OC(F)(F)F)c1` [Compound R920402] was more than 10 µM; that for `CNC(=O)COc1cccc(Nc2ncc(F)c(Nc3ccc(OC)c(CN(C)C)c3)n2)c1` [R940321, N4-(3-N,N-Dimethylaminomethylene-4-methoxyphenyl)-5-fluoro-N2-[3-(methylaminocarbonylmethyleneoxy)phenyl]-2,4-pyrimidinediamine] was more than 10 µM.
The value for `Oc1cccc(Nc2ncc(F)c(Nc3ccc4c(c3)OCCO4)n2)c1` [R926210, N4-(3,4-Ethylenedioxyphenyl)-5-fluoro-N2-(3-hydroxyphenyl)-2,4-pyrimidinediamine] was 0.926 µM; that for `COc1cc(C(=O)NS(=O)(=O)c2ccccc2C)ccc1Cn1ncc2cc(Nc3ncc(F)c(Nc4ccc5c(c4)OCCO5)n3)ccc21` [R935339, N4-(3,4-Ethylenedioxyphenyl)-5-fluoro-N2-[1-[2-methoxy-4-(o-toluylsulfonamidocarboxy)benzyl]indazoline-5-yl]-2,4-pyrimidinediamine] was more than 10 µM.
`COc1ccc(Nc2nc(Nc3ccc4c(cnn4C)c3)ncc2F)c(OC)n1` [R935380, N4-(2,6-Dimethoxy-3-pyridyl)-5-fluoro-N2-[1-methylindazoline-5-yl]-2,4-pyrimidinediamine] returned an IC50 of 1.61 µM.
Take `COc1ccc(Nc2nc(Cl)ncc2F)cc1CN1CCOCC1` [Compound R940313]: the IC50 was more than 10 µM.

The record behind these values is US9499493B2, “2,4-pyrimidinediamine compounds and their uses” (Rigel Pharmaceuticals, Inc., priority 2002, dated 2016).
